Our source for the Ki values is patent publication US9115117B2, “Substituted piperidine compounds and their use as orexin receptor modulators” (JANSSEN PHARMACEUTICA NV, priority 2013, dated 2015).

One test addresses human orexin 2 receptor (Homo sapiens (Human), UniProt O43614). Briefly: Human orexin 2 receptor radioligand binding ([3H]-EMPA). Particulars: HEK293 stably expressing human orexin 2 receptor; [3H]-EMPA; apparent Ki; read-out: hOX2 Ki. How it is done: After centrifugation (2K×G, 5 min at 4° C.), the supernatant was aspirated and the pellets frozen and stored at −80° C. […] Each cell pellet from a 15 cm plate was resuspended in 10 mL, stored on ice, and homogenized for 45 sec just prior to addition to the reactions. Competition binding experiments in 96 well polypropylene plates were performed using [^3H]-EMPA (Moraveck Corporation, specific activity=29.6 Ci/mmol), diluted to a 5 nM concentration in PBS (2 nM final concentration). […] The final concentration of DMSO in the reactions is equal to or less than 0.1%. Total and nonspecific binding was determined in the absence and presence of […]. The total volume of each reaction is 200 μL (20 μL of diluted compounds, 80 μL of [^3H]-EMPA diluted in PBS and 100 μL of the cell suspension).
The plates were washed 3 times by aspirating 30 ml PBS through the plates. Plates were dried in 55° C. oven for 60 min, scintillation fluid was added, and the radioactivity was counted on a Topcount (Packard).

In the next test the target is rat orexin 1 receptor (Rattus norvegicus, UniProt P56718). Briefly: Rat orexin 1 receptor radioligand binding. The settings on record: HEK293 cells stably expressing rat orexin 1 receptor; apparent Ki; read-out: rOX1 Ki. As for the experimental part:
After centrifugation (2K×G, 5 min at 4° C.), the supernatant was aspirated and the pellets frozen and stored at −80° C. […] Each cell pellet from a 15 cm plate was resuspended in 10 mL, stored on ice, and homogenized for 45 sec prior to addition to the reactions. Competition binding experiments in 96 well polypropylene plates were performed using [^3H]-(1-(5-(2-fluoro-phenyl)-2-methyl-thiazol-4-yl)-1-((S)-2-(5-phenyl-(1,3,4)oxadiazol-2-ylmethyl)-pyrrolidin-1-yl)-methanone) (Moraveck Corporation, specific activity=35.3 Ci/mmol), diluted to a 10 nM concentration in PBS (4 nM final). […] The final concentration of DMSO in the reactions is equal to or less than 0.1%. Total and nonspecific binding was determined in the absence and presence of 10 μM almorexant. The total volume of each reaction is 200 μL (20 μL of diluted compounds, 80 μL of [3H]-(1-(5-(2-fluoro-phenyl)-2-methyl-thiazol-4-yl)-1-((S)-2-(5-phenyl-(1,3,4)oxadiazol-2-ylmethyl)-pyrrolidin-1-yl)-methanone) diluted in PBS and 100 μL of the cell suspension). […] The plates were washed 3 times by aspirating 30 ml PBS through the plates. Plates were dried in 55° C. oven for 60 min, scintillation fluid was added, and the radioactivity was counted on a Topcount (Packard).

Sequence of human orexin 2 receptor (O43614 whole entry): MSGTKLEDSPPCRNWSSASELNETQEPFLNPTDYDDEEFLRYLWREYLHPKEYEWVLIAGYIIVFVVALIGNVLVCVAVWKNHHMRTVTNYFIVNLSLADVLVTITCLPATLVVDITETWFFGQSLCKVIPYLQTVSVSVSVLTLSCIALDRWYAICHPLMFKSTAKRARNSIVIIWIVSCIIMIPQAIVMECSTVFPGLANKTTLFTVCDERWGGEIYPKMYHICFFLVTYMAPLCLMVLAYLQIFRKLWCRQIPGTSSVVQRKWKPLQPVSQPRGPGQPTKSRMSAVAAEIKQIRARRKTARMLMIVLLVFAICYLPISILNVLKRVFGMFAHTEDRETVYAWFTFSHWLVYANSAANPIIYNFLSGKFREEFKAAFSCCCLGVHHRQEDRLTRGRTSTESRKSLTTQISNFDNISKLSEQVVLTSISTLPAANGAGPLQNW

On to `CCOc1ccc(C)nc1C(=O)N1CCC[C@@H](Nc2ccc(C(F)(F)F)cn2)[C@@H]1C` (racemic) [Example 16, (±)-trans-(3-ethoxy-6-methylpyridin-2-yl)(2-methyl-3-((5-(trifluoromethyl)pyridin-2-yl)amino)piperidin-1-yl)methanone], for which the Ki at human orexin 2 receptor was determined as 0.68 µM.
For the molecule `C[C@H]1[C@H](Nc2ncc(F)cn2)CCCN1C(=O)c1ccccc1-n1nccn1` (racemic) [Example 40, (±)-trans-(2-(2H-1,2,3-triazol-2-yl)phenyl)(3-((5-fluoropyrimidin-2-yl)amino)-2-methylpiperidin-1-yl)methanone], the Ki was found to be 0.87 µM at rat orexin 1 receptor and 0.822 µM on human orexin 2 receptor.
As for `C[C@H]1[C@H](Nc2ccc(C(F)(F)F)cn2)CCCN1C(=O)c1ncccc1-n1nccn1` (racemic) [Example 21, (±)-trans-(3-(2H-1,2,3-triazol-2-yl)pyridin-2-yl)(2-methyl-3-((5-(trifluoromethyl)pyridin-2-yl)amino)piperidin-1-yl)methanone], on human orexin 2 receptor, the Ki amounted to 0.595 µM.
On the same count and under the same terms, for `Cc1cnc(N[C@@H]2CCCN(C(=O)c3ccccc3-n3nccn3)[C@H]2C)nc1` (racemic) [Example 31, (±)-trans-(2-(2H-1,2,3-triazol-2-yl)phenyl)(2-methyl-3-((5-methylpyrimidin-2-yl)amino)piperidin-1-yl)methanone] the value was 0.508 µM.
On to `C[C@@H]1[C@H](Nc2nc3cc(Cl)ccc3o2)CCCN1C(=O)c1ccccc1-n1nccn1` (racemic) [Example 60, (±)-cis-((2-(2H-1,2,3-triazol-2-yl)phenyl)(3-((5-chlorobenzo[d]oxazol-2-yl)amino)-2-methylpiperidin-1-yl)methanone], for which the Ki at rat orexin 1 receptor and on human orexin 2 receptor was more than 10 µM in each case.
Regarding `C[C@H]1[C@H](Nc2ccccn2)CCCN1C(=O)c1ccccc1-n1nccn1` (racemic) [Example 36, (±)-trans-(2-(2H-1,2,3-triazol-2-yl)phenyl)(2-methyl-3-(pyridin-2-ylamino)piperidin-1-yl)methanone], the Ki at rat orexin 1 receptor came to 0.69 µM; on human orexin 2 receptor, 1.5 µM.
Regarding `COc1c(F)cccc1C(=O)N1CCC[C@@H](Nc2ccc(C(F)(F)F)cn2)[C@@H]1C` (racemic) [Example 28, (±)-trans-(3-fluoro-2-methoxyphenyl)(2-methyl-3-((5-(trifluoromethyl)pyridin-2-yl)amino)piperidin-1-yl)methanone], the Ki on rat orexin 1 receptor was 0.496 µM; on human orexin 2 receptor, 3.9 µM.
As to `C[C@H]1[C@H](Nc2ncc3ccccc3n2)CCCN1C(=O)c1ccccc1-n1nccn1` (racemic) [Example 39, (±)-trans-(2-(2H-1,2,3-triazol-2-yl)phenyl)(2-methyl-3-(quinazolin-2-ylamino)piperidin-1-yl)methanone], at human orexin 2 receptor, the Ki was 0.189 µM.
For `C[C@H]1[C@H](Nc2nccc(-c3ccccc3)n2)CCCN1C(=O)c1ccccc1-n1nccn1` (racemic) [Example 51, (±)-trans-(2-(2H-1,2,3-triazol-2-yl)phenyl)(2-methyl-3-((4-phenylpyrimidin-2-yl)amino)piperidin-1-yl)methanone], the Ki on human orexin 2 receptor is 2.1 µM.
As for `C[C@H]1[C@H](Nc2ccc(Cl)cn2)CCCN1C(=O)c1ccccc1-n1nccn1` [Example 100, (2-(2H-1,2,3-triazol-2-yl)phenyl)((2S,3R)-3-((5-chloropyridin-2-yl)amino)-2-methylpiperidin-1-yl)methanone], the Ki at human orexin 2 receptor was 0.207 µM.
Take `COc1c(F)cccc1C(=O)N1CCC[C@@H](Nc2cnc3ccccc3n2)[C@H]1C` (racemic) [Example 64, (±)-cis-(3-fluoro-2-methoxyphenyl)(2-methyl-3-(quinoxalin-2-ylamino)piperidin-1-yl)methanone]: the Ki on rat orexin 1 receptor is 1.1 µM; on human orexin 2 receptor, 1.3 µM.
On to `COc1c(F)cccc1C(=O)N1CCC[C@@H](Nc2nc3cc(Cl)ccc3o2)[C@@H]1C` (racemic) [Example 47, (±)-trans-(3-((5-chlorobenzo[d]oxazol-2-yl)amino)-2-methylpiperidin-1-yl)(3-fluoro-2-methoxyphenyl)methanone], for which the Ki on rat orexin 1 receptor is 0.373 µM; at human orexin 2 receptor it was 1.3 µM.
For the molecule `C[C@H]1[C@H](Nc2ccc(Cl)cn2)CCCN1C(=O)c1ccccc1-n1nccn1` (racemic) [Example 32, (±)-trans-(2-(2H-1,2,3-triazol-2-yl)phenyl)(3-((5-chloropyridin-2-yl)amino)-2-methylpiperidin-1-yl)methanone], the Ki at human orexin 2 receptor is 0.286 µM.
As for `CCOc1ccccc1C(=O)N1CCC[C@@H](Nc2ccc(C(F)(F)F)cn2)[C@H]1C` (racemic) [Example 55, (±)-cis-(2-ethoxyphenyl)(2-methyl-3-((5-(trifluoromethyl)pyridin-2-yl)amino)piperidin-1-yl)methanone], the Ki is 1.2 µM on rat orexin 1 receptor and more than 10 µM on human orexin 2 receptor.
Consider `COc1c(F)cccc1C(=O)N1CCC[C@@H](Nc2nccc(-c3ccccc3)n2)[C@H]1C` (racemic) [Example 67, (±)-cis-(3-fluoro-2-methoxyphenyl)(2-methyl-3-((4-phenylpyrimidin-2-yl)amino)piperidin-1-yl)methanone], for which the Ki on human orexin 2 receptor was more than 10 µM.
As for `Cc1ccc(-c2ncccn2)c(C(=O)N2CCC[C@@H](Nc3cc(C)nc(C(F)(F)F)n3)[C@@H]2C)c1` (racemic) [Example 7, (±)-trans-(5-methyl-2-(pyrimidin-2-yl)phenyl)(2-methyl-3-((6-methyl-2-(trifluoromethyl)pyrimidin-4-yl)amino)piperidin-1-yl)methanone], the Ki at human orexin 2 receptor was 0.228 µM.
Consider `COc1c(F)cccc1C(=O)N1CCC[C@@H](Nc2nccc(-c3ccccc3)n2)[C@@H]1C` (racemic) [Example 52, (±)-trans-(3-fluoro-2-methoxyphenyl)(2-methyl-3-((4-phenylpyrimidin-2-yl)amino)piperidin-1-yl)methanone], for which the Ki at human orexin 2 receptor was found to be 2.7 µM.
Consider `CCOc1ccccc1C(=O)N1CCC[C@@H](Nc2nccc(-c3ccccc3)n2)[C@@H]1C` (racemic) [Example 53, (±)-trans-(2-ethoxyphenyl)(2-methyl-3-((4-phenylpyrimidin-2-yl)amino)piperidin-1-yl)methanone], for which, on human orexin 2 receptor, the Ki was 0.058 µM.
Consider `C[C@H]1[C@H](Nc2cnc3ccccc3n2)CCCN1C(=O)c1ccccc1-n1nccn1` (racemic) [Example 48, (±)-trans-(2-(2H-1,2,3-triazol-2-yl)phenyl)(2-methyl-3-(quinoxalin-2-ylamino)piperidin-1-yl)methanone], for which the Ki on human orexin 2 receptor was determined as 0.096 µM.
Regarding `CCOc1ccccc1C(=O)N1CCC[C@@H](Nc2nc3cc(Cl)ccc3o2)[C@H]1C` (racemic) [Example 61, (±)-cis-(3-((5-chlorobenzo[d]oxazol-2-yl)amino)-2-methylpiperidin-1-yl)(2-ethoxyphenyl)methanone], on human orexin 2 receptor, the Ki worked out at 2.5 µM.
For the molecule `C[C@H]1[C@H](Nc2ccc(C(F)(F)F)cn2)CCCN1C(=O)c1cc(F)ccc1-n1nccn1` (racemic) [Example 24, (±)-trans-(5-fluoro-2-(2H-1,2,3-triazol-2-yl)phenyl)(2-methyl-3-((5-(trifluoromethyl)pyridin-2-yl)amino)piperidin-1-yl)methanone], the Ki on human orexin 2 receptor was found to be 0.324 µM.
With `CCOc1ccccc1C(=O)N1CCC[C@@H](Nc2nccc(-c3ccccc3)n2)[C@H]1C` (racemic) [Example 68, (±)-cis-(2-ethoxyphenyl)(2-methyl-3-((4-phenylpyrimidin-2-yl)amino)piperidin-1-yl)methanone], the Ki on human orexin 2 receptor was more than 10 µM.
On the same count and under the same terms, under `CCOc1ccccc1C(=O)N1CCC[C@@H](Nc2nc3cc(Cl)ccc3o2)[C@@H]1C` (racemic) [Example 46, (±)-trans-(3-((5-chlorobenzo[d]oxazol-2-yl)amino)-2-methylpiperidin-1-yl)(2-ethoxyphenyl)methanone] stands 0.489 µM; under `C[C@@H]1[C@H](Nc2nccc(-c3ccccc3)n2)CCCN1C(=O)c1ccccc1-n1nccn1` (racemic) [Example 66, (±)-cis-(2-(2H-1,2,3-triazol-2-yl)phenyl)(2-methyl-3-((4-phenylpyrimidin-2-yl)amino)piperidin-1-yl)methanone], 1.8 µM; under `C[C@@H]1[C@H](Nc2cnc3ccccc3n2)CCCN1C(=O)c1ccccc1-n1nccn1` (racemic) [Example 63, (±)-cis-(2-(2H-1,2,3-triazol-2-yl)phenyl)(2-methyl-3-(quinoxalin-2-ylamino)piperidin-1-yl)methanone], more than 10 µM.
